Data from article PMC9959589, “Use of a Longer Aglycon Moiety Bearing Sialyl α(2→3) Lactoside on the Glycopolymer for Lectin Evaluation” (Polymers, 2023).

Target: T1, Wheat germ agglutinin (WGA)
T1 construct: gene WGA1; commercial native lectin from wheat germ (J-Oil Mills)
Experiment: intrinsic tryptophan fluorescence titration, Hill plot
Format: binding, Triticum aestivum
Conditions: 0.65 μM WGA, 50 mM Tris-HCl, 1.25 M NaCl, 25 mM CaCl2, pH 7.5, 4 °C; excitation 295 nm, emission 348 nm (buffer as given for 10b, same procedure); read-out: K a / (×10^5 M^-1) (converted)
From the text: intrinsic tryptophan fluorescence titration, Hill plot on Wheat germ agglutinin (WGA)

`C=CC(=O)NCCOCCOCCOCCOCCOCCOCCOCCOCCO[C@@H]1O[C@H](CO)[C@@H](O[C@@H]2O[C@H](CO)[C@H](O)[C@H](O[C@]3(C(=O)O)C[C@H](O)[C@@H](NC(C)=O)[C@H]([C@H](O)[C@H](O)CO)O3)[C@H]2O)[C@H](O)[C@H]1O` [compound 9, 28-Oxo-3,6,9,12,15,18,21,24-octaoxa-27-azatriacont-29-en-1-yl (5-Acetamido-3,5-dideoxy-D̿ -glycero-α-D̿ -galacto-2-nonulopyranosyl)-(2→3)-O-(β-D̿ -galactopyranosyl)-(1→4)-β-D̿ -glucopyranoside] was tested, and the Kd was 31.2 µM.
